The values below come from patent publication US12606566B2, “Substituted cyclopenta[4,5]pyrrolo[1,2-a]pyrazines as bruton's tyrosine kinase inhibitors” (Shanghai Synergy Pharmaceutical Sciences Co., Ltd., priority 2020, dated 2026).

In assay [1] the test system is tumour cells (A20 5E6 cells). Put plainly: Inhibitory effect on tumour cell proliferation (CCK8). Type of assay: cell-based. The conditions noted are these: CCK8 absorbance, read-out: Inhibitory effect of the compound on cell proliferation IC50. The procedure: This experiment was to determine the effect of the compound on cell proliferation.
To determine the inhibitory effect of the compound on the proliferation of tumour cells, tumour cells (A20 5E6 cells) were cultured to a certain amount and seeded into 96-well plates. […] The absorbance value was measured after the addition of CCK8 and 2 h incubation to determine the inhibitory effect of the compound on cell proliferation. The IC50 value of the compound was obtained by data fitted with Graphpad.

A further assay addresses BTK kinase (Homo sapiens, UniProt Q06187). The assay can be described thus: BTK kinase inhibitory activity, mobility shift method. Type of assay: biochemical. The conditions noted are these: compound co-incubated with the enzyme for 30 minutes. The procedure:
The BTK kinase inhibitory activity of the compound was determined using a mobility shift method with the reaction system (kinase solution, ATP, kinase substrate2). The compound was co-incubated with the enzyme for 30 minutes, and then the conversion rate was read using the Caliper EZ reader. The compound inhibition rate was determined using the calculation formula and the data was fitted using Graphpad to derive the IC50 value for the compounds of this application.

Sequence of BTK kinase (Q06187 whole entry): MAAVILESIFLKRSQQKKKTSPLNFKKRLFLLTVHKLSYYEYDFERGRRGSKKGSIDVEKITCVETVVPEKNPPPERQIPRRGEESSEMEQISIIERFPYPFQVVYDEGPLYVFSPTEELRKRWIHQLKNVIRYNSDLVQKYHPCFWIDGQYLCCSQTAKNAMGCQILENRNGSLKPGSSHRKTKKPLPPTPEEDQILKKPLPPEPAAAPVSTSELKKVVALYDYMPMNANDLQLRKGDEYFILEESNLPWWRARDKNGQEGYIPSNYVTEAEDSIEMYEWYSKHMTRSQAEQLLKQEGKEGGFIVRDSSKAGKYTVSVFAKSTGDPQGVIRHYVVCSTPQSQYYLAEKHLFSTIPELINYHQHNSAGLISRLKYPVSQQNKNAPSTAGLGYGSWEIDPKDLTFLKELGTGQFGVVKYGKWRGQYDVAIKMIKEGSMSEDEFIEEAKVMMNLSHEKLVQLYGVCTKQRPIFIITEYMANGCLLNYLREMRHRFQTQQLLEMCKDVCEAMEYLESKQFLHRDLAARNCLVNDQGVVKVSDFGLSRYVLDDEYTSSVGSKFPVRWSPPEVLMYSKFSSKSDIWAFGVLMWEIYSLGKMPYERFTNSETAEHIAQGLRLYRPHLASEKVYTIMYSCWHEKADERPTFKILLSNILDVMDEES

Turning to `C[C@H]1CN(C2COC2)CCN1c1ccc(Nc2cc(-c3ccnc(N4CCn5c6c(c(F)c5C4=O)CC(C)(C)C6)c3CO)cn(C)c2=O)nc1` [Example H01, (S)-9-fluoro-2-(3′-(hydroxymethyl)-1-methyl-5-((5-(2-methyl-4-(oxetan-3-yl)piperazin-1-yl)pyridin-2-yl)amino)-6-oxo-1,6-dihydro-[3,4′-bipyridin]-2′-yl)-7,7-dimethyl-3,4,7,8-tetrahydro-2H-cyclopenta[4,5]pyrrolo[1,2-a]pyrazin-1(6H)-one], the results for the IC50 (in assay [1]; on BTK kinase) were 24 nM and 0.23 nM, respectively.
The corresponding values for `C[C@H]1CN(C2COC2)CCN1c1ccc(Nc2cc(-c3ccnc(N4CCn5c6c(c(Cl)c5C4=O)CC(C)(C)C6)c3CO)cn(C)c2=O)nc1` [Example H02, (S)-9-chloro-2-(3′-(hydroxymethyl)-1-methyl-5-((5-(2-methyl-4-(oxetan-3-yl)piperazin-1-yl)pyridin-2-yl)amino)-6-oxo-1,6-dihydro-[3,4′-bipyridin]-2′-yl)-7,7-dimethyl-3,4,7,8-tetrahydro-2H-cyclopenta[4,5]pyrrolo[1,2-a]pyrazin-1(6H)-one] are 23 nM and 0.59 nM.
The corresponding values for `Cc1c2c(n3c1C(=O)N(c1nccc(-c4cc(Nc5ccc(N6CCN(C7COC7)C[C@@H]6C)cn5)c(=O)n(C)c4)c1CO)CC3)CC(C)(C)C2` [Example H03, (S)-2-(3′-(hydroxymethyl)-1-methyl-5-((5-(2-methyl-4-(oxetan-3-yl)piperazin-1-yl)pyridin-2-yl)amino)-6-oxo-1,6-dihydro-[3,4′-bipyridin]-2′-yl)-7,7,9-trimethyl-3,4,7,8-tetrahydro-2H-cyclopenta[4,5]pyrrolo[1,2-a]pyrazin-1(6H)-one] are 61 nM and 0.14 nM.
The like results for `CC(C)n1cc(-c2ccnc(N3CCn4c(cc5c4CC(C)(C)C5)C3=O)c2CO)cc(Nc2ccc(N3CCN(C4COC4)C[C@@H]3C)cn2)c1=O` [Example H04, (S)-2-(3′-(hydroxymethyl)-1-isopropyl-5-((5-(2-methyl-4-(oxetan-3-yl)piperazin-1-yl)pyridin-2-yl)amino)-6-oxo-1,6-dihydro-[3,4′-bipyridin]-2′-yl)-7,7-dimethyl-3,4,7,8-tetrahydro-2H-cyclopenta[4,5]pyrrolo[1,2-a]pyrazin-1(6H)-one] were, in that order, 26 nM and 0.26 nM.
In the case of `C[C@H]1CN(C2COC2)CCN1c1ccc(Nc2cc(-c3cc(C#N)cc(N4CCn5c(cc6c5CC(C)(C)C6)C4=O)c3CO)cn(C)c2=O)nc1` [Example H05, (S)-3-(7,7-dimethyl-1-oxo-1,3,4,6,7,8-hexahydro-2H-cyclopenta [4,5]pyrrolo[1,2-a]pyrazin-2-yl)-4-(hydroxymethyl)-5-(1-methyl-5-((5-(2-methyl-4-(oxetan-3-yl)piperazin-1-yl)pyridin-2-yl)amino)-6-oxo-1,6-dihydropyridin-3-yl) benzonitrile], the IC50 in assay [1] worked out at 23 nM; on BTK kinase, 0.69 nM.
For the compound `C[C@H]1CN(C2COC2)CCN1c1ccc(Nc2cc(-c3ccnc(N4CCn5c6c(c(C#N)c5C4=O)CC(C)(C)C6)c3CO)cn(C)c2=O)nc1` [Example H18, (S)-2-(3′-(hydroxymethyl)-1-methyl-5-((5-(2-methyl-4-(oxetan-3-yl)piperazin-1-yl)pyridin-2-yl)amino)-6-oxo-1,6-dihydro-[3,4′-bipyridin]-2′-yl)-7,7-dimethyl-1-oxo-1,3,4,6,7,8-hexahydro-2H-cyclopenta[4,5]pyrrolo[1,2-a]pyrazine-9-carbonitrile], on BTK kinase, the IC50 was determined as 0.65 nM.
Same read-out and setting: with `C[C@H]1CN(C2COC2)CCN1c1ccc(Nc2cc(-c3ccnc(N4CCn5c6c(c(C(F)(F)F)c5C4=O)CC(C)(C)C6)c3CO)cn(C)c2=O)nc1` [Example H19, (S)-2-(3′-(hydroxymethyl)-1-methyl-5-((5-(2-methyl-4-(oxetan-3-yl)piperazin-1-yl)pyridin-2-yl)amino)-6-oxo-1,6-dihydro-[3,4′-bipyridin]-2′-yl)-7,7-dimethyl-9-(trifluoromethyl)-3,4,7,8-hexahydro-2H-cyclopenta[4,5]pyrrolo[1,2-a]pyrazine-1(6H)-one] the figure was 0.52 nM.
On the same count and under the same terms, the same measure for `CCOc1c2c(n3c1C(=O)N(c1nccc(-c4cc(Nc5ccc(N6CCN(C7COC7)C[C@@H]6C)cn5)c(=O)n(C)c4)c1CO)CC3)CC(C)(C)C2` [Example H20, (S)-9-ethoxy-2-(3′-(hydroxymethyl)-1-methyl-5-((5-(2-methyl-4-(oxetan-3-yl)piperazin-1-yl)pyridin-2-yl)amino)-6-oxo-1,6-dihydro-[3,4′-bipyridyl]-2′-yl)-7,7-dimethyl-3,4,7,8-tetrahydro-2H-cyclopenta[4,5]pyrrolo[1,2-a]pyrazin-1(6H)-one]: 0.55 nM; for `C[C@H]1CN(C2COC2)CCN1c1ccc(Nc2cc(-c3ccnc(N4CCn5c6c(c(OC7CC7)c5C4=O)CC(C)(C)C6)c3CO)cn(C)c2=O)nc1` [Example H23, (S)-9-cyclopropoxy-2-(3′-(hydroxymethyl)-1-methyl-5-((5-(2-methyl-4-(oxetan-3-yl)piperazin-1-yl)pyridin-2-yl)amino)-6-oxo-1,6-dihydro-[3,4′-bipyridin]-2′-yl)-7,7-dimethyl-3,4,7,8-tetrahydro-2H-cyclopenta[4,5]pyrrolo[1,2-a]pyrazin-1(6H)-one]: 0.51 nM.
Same read-out and setting: with `CC(C)Oc1c2c(n3c1C(=O)N(c1nccc(-c4cc(Nc5ccc(N6CCN(C7COC7)C[C@@H]6C)cn5)c(=O)n(C)c4)c1CO)CC3)CC(C)(C)C2` [Example H24, (S)-2-(3′-(hydroxymethyl)-1-methyl-5-((5-(2-methyl-4-(oxetan-3-yl)piperazin-1-yl)pyridin-2-yl)amino)-6-oxo-1,6-dihydro-[3,4′-bipyridin]-2′-yl)-9-isopropoxy-7,7-dimethyl-3,4,7,8-tetrahydro-2H-cyclopenta[4,5]pyrrolo[1,2-a]pyrazin-1(6H)-one] the figure was 0.65 nM; with `C[C@H]1CN(C2COC2)CCN1c1ccc(Nc2cc(-c3ccnc(N4CCn5c6c(c(N)c5C4=O)CC(C)(C)C6)c3CO)cn(C)c2=O)nc1` [Example H25, (S)-9-amino-2-(3′-(hydroxymethyl)-1-methyl-5-((5-(2-methyl-4-(oxetan-3-yl)piperazin-1-yl)pyridin-2-yl)amino)-6-oxo-1,6-dihydro-[3,4′-bipyridin]-2′-yl)-7,7-dimethyl-3,4,7,8-tetrahydro-2H-cyclopenta[4,5]pyrrolo[1,2-a]pyrazin-1(6H)-one], 0.44 nM; with `CNc1c2c(n3c1C(=O)N(c1nccc(-c4cc(Nc5ccc(N6CCN(C7COC7)C[C@@H]6C)cn5)c(=O)n(C)c4)c1CO)CC3)CC(C)(C)C2` [Example H26, (S)-2-(3′-(hydroxymethyl)-1-methyl-5-((5-(2-methyl-4-(oxetan-3-yl)piperazin-1-yl)pyridin-2-yl)amino)-6-oxo-1,6-dihydro-[3,4′-bipyridin]-2′-yl)-9-methylamino-7,7-dimethyl-3,4,7,8-tetrahydro-2H-cyclopenta[4,5]pyrrolo[1,2-a]pyrazin-1(6H)-one], 0.46 nM.
For `C=CC(=O)N1CCC[C@@H](n2nc(-c3ccc(Oc4ccccc4)cc3)c3c(N)ncnc32)C1` [Ibrutinib, reference compound], the IC50 in assay [1] was 87 nM.
